# Results taken from patent US8865672B2, “Prevention of tissue ischemia and related methods” (The United States of America, as represented by the …, priority 2006, dated 2014).
# Ends that are not written are not given here. * marks the point of attachment. Biotin = O=C1N[C@H]2[C@H](CS[C@H]2CCCCC(=O)*)N1
# Experiments:
# [1] = test system: NO/cGMP signaling; test: cGMP signaling (NO-stimulated cGMP, immunoassay); format: cell-based, human; conditions: concentration for 50% inhibition of effect
# Experimental: Vascular cells (endothelial) or HT-1080 cells (10^4 cells/well) grown overnight in 12-well culture in SM-GM containing 2% FCS or RPMI+10% FCS respectively and then weaned off serum over 48 h before treatment with NO donors and other agents in serum/additive free medium+0.1% BSA. Intracellular cGMP levels were determined using an enzyme immunoassay (Amersham, GE Health Care, UK). In other experiments fresh washed human platelets were incubated in Tyrode's buffer and the indicated treatment agents±NO and cGMP determined.
# [2] = test system: VSMC and endothelial cells; test: NO-stimulated adhesion of VSMC and endothelial cells to type I collagen (Example 9); format: cell-based; conditions: 10 μM DEA/NO
# Experimental: Vascular cells (VSMC or endothelial) were plated at 10,000 cells/well onto 96-well plates (Maxisorb, Nunc) precoated with type I collagen (3 μg/ml). […] Plates were then washed with PBS, fixed with glutaraldehyde, stained with crystal violet, and washed. Absorbed stain was solubilized with acetic acid from fixed cells and the resulting color signal determined on a MR580Microelisa Auto Reader, (Dynatech, Alexandria, Va.) at 450 nm wavelength.
# [3] = test system: vascular cell outgrowth from muscle explants; test: Explant invasion assay in 3D collagen; format: cell-based, mouse; conditions: wild type and TSP1 null explants, NO 10 μM, peptides 10 μM, NoC1 0.1 μg/ml, day 7
# Experimental: Muscle biopsies from the pectoralis major muscle of 8 to 12 week old wild type or transgenic mice were harvested and explanted into 100 μl of type I collagen gel in 96-well tissue culture plates as described (Isenberg et al., Matrix Biol 24:110-123, 2005). Following gelation, the embedded explants were overlayed with 75 μl of EGM+2% FCS in the presence or absence of a dose range of DETA/NO (0.01-1000 μM) and other indicated treatments and then incubated at 37° C. and 5% CO2 for 7 days, at which time maximum vascular cell migration through the matrix was measured.
# [4] = test system: random myocutaneous flaps in mice; test: Random myocutaneous (McFarlane) flap model; format: in vivo, mouse; conditions: aged TSP1-null animals, agent in drinking water
# Experimental: WT and TSP1 null mice were matched for sex and age. Under isoflurane inhalation anesthesia 1×2 cm random myocutaneous flaps were raised. Where indicated, animals received either L-NAME (0.5 mg/ml) or ISDN (1 mg/ml) ad libitum in drinking water during the post-operative period. On postoperative day 7, the animals were again anesthetized with inhalation isoflurane and flaps evaluated. Viable and necrotic areas of the flaps were determined by color, refill, eschar, and the pin-prick test. Outlines of viable and nonviable areas were traced using transparent film and the area of flap necrosis versus total flap area determined as described (Yu et al., Proc Natl Acad Sci USA 102:10999-11004, 2005).
# Wild type, TSP1 null, CD36 null and CD47 null mice were matched for sex and age underwent random dorsal myocutaneous flaps as described (Isenberg et al., Blood 2006; Example 2) and tissue harvested on postoperative day 7.
# The necrotic area of the flap was determined as described (Isenberg et al., Blood. Nov. 2, 2006) Animals were then euthanized and flaps excised, fixed in 10% paraformaldehyde and processed for histology.
# Random myocutaneous flap wound beds and/or ischemic hindlimb vastus medialis muscle was assessed at indicated time points (72 hours or 7 days post-operatively) for visible alterations in vascularity under 5× magnification. An arbitrary though strictly applied definition of countable vessels was employed to highlight both individual vessels and vascular ramifications. In any given vascular plexus visible by 5× magnification a vessel was defined as that segment traversing two branches. Visible vessels without ramifications and branches were counted once. Treatment status and genetic background of tissue images was not known by the reviewer.
# Animals underwent creation of a random myocutaneous (McFarlane) flap as previously described (Isenberg et al., Blood 109:1945-1952, 2007). Some animals received either ISDN (1 mg/mL) or L-NAME (0.5 mg/ml) ad libitum in the drinking water during the post-operative interval.
# Flap soft tissue units and underling wound beds were injected with control vehicle (normal saline), a CD47 morpholino or a control morpholino (10 μM) in sterile saline. Flap survival was determined as described.
# [5] = test system: full thickness skin grafts in mice; test: Full thickness skin graft (FTSG) model; format: in vivo, mouse; conditions: TSP1-null grafts, agent in drinking water post-operatively
# Experimental: Wild type, TSP1 null, CD47 null and CD36 null mice were matched for sex and age. Anesthesia was induced by and maintained with inhalation isoflurane. Body temperature was maintained at 37° C. with a heating pad during the procedure. The dorsal surface was clipped of hair and depilated with Nair®. The skin was then cleansed with surgical soap and alcohol and the animals draped. Using sterile technique, a 1×1 cm FTSG incorporating the panniculus carnosus, subcutaneous tissues and skin were raised. Graft dimensions were marked on the animal skin surface with the aid of a template to insure consistency in dimension. Grafts were in the midline of the animal and secured with four interrupted 5-0 nylon sutures. Sutures were so placed as to include the fascia of the dorsal musculature to provide increased immobilization of grafts to the underlying wound bed Animals were awakened and returned to individual cages and allowed ad libitum access to food and water. Trauma to FTSG was not encountered during the post-operative interval since grafts were located in the dorsal midline over the mid thoracic area and each animal was housed individually following surgery. On postoperative day three or seven, the animals were again anesthetized with inhalation isoflurane and skin graft survival evaluated.
# The groups of animals utilized and the treatments received as indicated either at the time of skin grafting and/or during the post-operative interval are summarized in FIG. 21. Animals treated with ISDN (1 mg/ml) or L-NAME (0.5 mg/ml) had ad libitum access to drinking water containing the given concentrations of agents during the post-operative interval. Animals treated with a CD47 monoclonal antibody (Ab clone 301) or an isotype matched control antibody (Ig2α) underwent injection of 40 μg delivered as 10 μl of a 4 mg/ml stock in 100 μl of PBS with equal volumes injected between the wound bed and graft prior to suturing the graft in place. Animals treated with a CD47 morpholino oligonucleotide underwent injection of the FTSG and wound bed with 10 μmol/L in 250 μl of PBS with 125 μl volumes injected in the graft and wound bed, respectively prior to suturing the graft in place.
# The necrotic areas of the FTSG were determined by color, refill, eschar, and the pin-prick test. The outlines of viable and nonviable areas were traced using transparent film, and the area of necrosis cut from the template and the area of skin graft necrosis versus total skin graft area determined by comparison of the original template weight to the weight of the cut template utilizing the method described by Ueda (Ueda et al., J Surg Res 80(2):200-204, 1998). Skin graft survival area was presented as the ration of graft survival on post-operative day three or seven divided by the original graft area multiplied by 100%. Additionally, digital images were then acquired using an Olympus C5500 digital camera at a fixed distance (20 cm perpendicular to the animal) under standard room lighting with autoflash and macro settings engaged and uploaded for image analysis of tissue survival with a standard software program (Image-Pro Plus, Media Cybernetics, Inc., Silver Spring, Md.). […]
# Skin graft wound beds were assessed at indicated time points (72 hours or 7 days post-operatively) for visible alterations in vascularity under 5× magnification. […] Visible vessels without ramifications and branches were counted once. […]
# [6] = test system: HUVEC; test: NO-stimulated HUVEC adhesion on type I collagen; format: cell-based, human; conditions: DEA/NO 10 μM
# Experimental: Cell adhesion was carried out in 96-well culture plates. After pre-coating wells with type I collagen (3 μg/ml in DPBS) harvested cells were plated at a density of 1×10^4 cells/well in medium plus 0.1% BSA and treatment agents and incubated in 5% CO2 for 1 h. Wells were washed with PBS and cells fixed with 1% glutaraldehyde for 10 min., washed and stained with 1% crystal violet for 20 min. Excess stain was rinsed away, adherent cells treated with 10% acetic acid, and plates read at 570 nm.
# [7] = test system: murine ASMC (WT, CD36 null, CD47 null); test: Intracellular cGMP in murine ASMC; format: cell-based, mouse
# Experimental: Murine ASMC were obtained from aortic segments harvested sterilely from C57B1/6 CD47 null or CD36 null mice as described (Ray et al., Methods Cell Sci 23:185-188, 2001) and cultured in SM-GM (Cambrex)+20% FCS. In the case of CD36 null cells, culture flasks were pre-coated with 1% gelatin prior to cell plating. Wild type C57B1/6 ASMC cultures were prepared as previously described (Isenberg et al., Matrix Biol 24:110-123, 2005). Cell culture purity was determined by immunohistochemistry staining for α-smooth muscle actin. Cells were used within passage 1 to 4 to minimize overgrowth of other cell types.
# HUVEC (10^4 cells/well) grown overnight in 96-well culture plates containing full growth medium with 2% FCS and weaned in growth medium without additives and 1% FCS over 24 hrs before treatment with NO donors and other agents in SM-GM without additives+0.1% BSA. Intracellular cGMP levels were determined according to the manufacturer's instructions using an enzyme immunoassay kit (Amersham Biosciences). In other experiments ASMC from wild type and CD36 or CD47 null mice were plated onto 96-well culture plates and incubated overnight in full growth medium. They were then weaned off serum as described to SM-GM+0.1% BSA and treated with NO donor and other agents as indicated. Intracellular cyclic nucleotides were determined via immunoassay.
# [8] = test system: human platelets; test: Thrombin-induced human platelet aggregation; format: cell-based; conditions: high shear
# Experimental: Platelets were pelleted from platelet-rich plasma (PRP) by centrifugation for 10 minutes at 200 g. They were then washed with acid citrate dextrose (ACD) (85 mM citric acid, 65 mM sodium citrate, 100 mM glucose, pH 5.1) at a ratio of 1:7 at room temperature. After pelleting the platelets again and removing the supernatant, the platelets were resuspended in 5 mL of Tyrode's buffer (137 mM NaCl, 3 mM KCl, 12 mM NaHCO3, 0.3 mM NaHPO4, 2 mM CaCl2, 1 mM MgCl2, 5.5 mM glucose, 5 mM HEPES, 3.5 mg/mL BSA, pH 7.4). The final platelet number was adjusted to […] in 500 μl/cuvette of Tyrode's buffer.
# Aggregation of human platelets under high shear conditions was assessed using a standard optical aggregometer (Lumi-Dual Aggregometer, Chrono-Log Corp., Havertown, Pa.) at 37° C. and 1200 rpm in a volume of 500 μl buffer with a final platelet concentration of 2×10^5 platelets/μl over a 5 minute interval. Pre-incubation with TSP1 and TSP1-based agents was for 15 minutes prior to addition of thrombin and/or the rapidly releasing nitric oxide donor DEA/NO. In some experiments platelets were pre-incubated with the Rap1 inhibitor GGTI-298 (10 μM) (Calbiochem, La Jolla, Calif.) for 30 minutes prior to initiating aggregation. In other high shear aggregation experiments murine platelets were prepared as above with the following modifications. Mouse blood was collected by retro-orbital bleeding of anesthetized mice using heparinized tubes. PRP was prepared and then diluted with 4 vol. of Tyrodes containing 5 mM EDTA to prevent activation. After collection by centrifugation, platelets were resuspended in 2× initial PRP volume and held at room temperature for less than 1 hour before use. Aggregation conditions consisted of 250 μL of washed platelets stirred at 1200 rpm in a Chronolog Optical aggregometer at 37° C. DEA/NO (10 μM) was added 30 seconds prior to activation and 8-BrcGMP added 15 min prior to activation with 0.2 U/ml human thrombin. Data was collected using Chronolog “Aggrolink” software. Platelet aggregation under static conditions was assessed using a spectrophotometer (Beckman DU 640, Beckman Coulter, Fullerton, Calif.) and determined as a change in absorbance at 400 nm with continuous observation over a five minute interval. The cuvette was inverted once every 60 seconds. Pre-incubation with TSP1 and TSP1-based agents was for 15 minutes prior to addition of thrombin and/or DEA/NO to minimize the formation of thrombin-serpinthrombospondin complexes (Chang & Detwiler, Arch Biochem Biophys. 299:100-104, 1992), which interfere with thrombin-platelet interactions.
# Fresh human platelets were suspended in Tyrode's buffer and under low shear conditions thrombin-stimulated aggregation measured as described. Platelets were then treated with peptide C6d (1 μM)±NO (10 μM DEA/NO) and thrombin and aggregation measure.
# [9] = test system: human platelets; test: cGMP in human platelets; format: cell-based; conditions: washed human platelets in Tyrode's buffer
# Experimental: Fresh human platelets at 2×10^5 platelets/μl in Tyrode's buffer or PRP were pre-incubated with the indicated agents for 15 minutes and then challenged with DEA/NO for the indicated time interval at room temperature and total cGMP determined via immunoassay (Amersham, GE Healthcare, Buckinghamshire, UK). Murine WT and TSP1-null platelets were treated with DEA/NO and cGMP flux measured.
compound,measurement,setting,value
GAKDFTAYR [C6s],cGMP signaling IC50,[1],inactive
same,NO-stimulated adhesion to type I collagen,[2],not blocked
Biotin-IGWKGFTAYR [C6e],cGMP signaling IC50,[1],inactive
same,NO-stimulated adhesion to type I collagen,[2],not blocked
VTCGGGVQKRSRL [p245],NO-stimulated vascular cell outgrowth,[3],inhibited vascular cell outgrowth
"O=[N+]([O-])O[C@H]1CO[C@H]2[C@@H]1OC[C@H]2O[N+](=O)[O-] [ISDN, Isosorbide dinitrate, reference compound]",flap survival,[4],did not dramatically alter flap survival
same,FTSG survival,[5],not substantially altered
FIRVVMYEGKK [7N3],NO-stimulated vascular cell outgrowth,[3],inhibited vascular cell outgrowth
same,concentration of maximal inhibition of NO-stimulated endothelial cell adhesion,[6],10 µM
same,NO-stimulated endothelial cell adhesion on type I collagen,[6]; 1 h,inhibited NO-stimulated endothelial cell adhesion
same,NO-stimulated cGMP,[7]; CD36 null MASMC,completely inhibited
same,NO-stimulated cGMP,[7]; CD47 null MASMC,did not significantly inhibit
same,concentration sufficient to significantly inhibit the NO delay,[8],10 nM
same,NO delay of thrombin-induced platelet aggregation,"[8]; thrombin 0.2 U/ml, DEA/NO 10 μM",blocked
same,NO stimulated cGMP in platelets,[9],partially inhibited
